In patent US20220213078A1, “MODULATORS OF THE INTEGRATED STRESS RESPONSE PATHWAY” (EVOTEC INTERNATIONAL GMBH, priority 2019, published 2022) one finds IC50 data, which are given here for 19 compounds.

The structures appear in SMILES notation.

This experiment concerns Tunicamycin induced ISR (ATF4) in wild-type HEK293 cells. Kind of experiment: HEK-ATF4 High Content Imaging assay (prevention of Tunicamycin induced ISR, ATF4 nucleus/cytoplasm signal ratio). Conditions: Homo sapiens, 6 hrs incubation, ATF4 immunofluorescence. The format is cell-based. The procedure:
HEK-ATF4 High Content Imaging Assay
Example compounds were tested in the HEK-ATF4 High Content Imaging assay to assess their pharmacological potency to prevent Tunicamycin induced ISR. Wild-type HEK293 cells were plated in 384-well imaging assay plates at a density of 12,000 cells per well in growth medium (containing DMEM/F12, 10% FBS, 2 mM L-Glutamine, 100 U/mL Penicillin—100 μg/mL Streptomycin) and incubated at 37° C., 5% CO2. 24-hrs later, the medium was changed to 50 μl assay medium per well (DMEM/F12, 0.3% FBS, 2 mM L-Glutamine, 100 U/mL Penicillin—100 μg/mL Streptomycin). Example compounds were serially diluted in dimethyl sulfoxide (DMSO), spotted into intermediate plates and prediluted with assay medium containing 3.3 μM Tunicamycin to give an 11-fold excess of final assay concentration. In addition to the example compound testing area, the plates also contained multiples of control wells for assay normalization purposes, wells, containing Tunicamycin but no example compounds (High control), as well as wells containing neither example compound nor Tunicamycin (Low control). The assay was started by transferring 5 μl from the intermediate plate into the assay plates, followed by incubation for 6 hrs at 37° C., 5% CO2. Subsequently, cells were fixed (4% PFA in PBS, 20 min at room temperature) and submitted to indirect ATF4 immunofluorescence staining (primary antibody rabbit anti ATF4, clone D4B8, Cell Signaling Technologies; secondary antibody Alexa Fluor 488 goat anti-rabbit IgG (H+L), Thermofisher Scientific). Nuclei were stained using Hoechst dye (Thermofisher Scientific), and plates were imaged on an Opera Phenix High Content imaging platform equipped with 405 nm and 488 nm excitation. Finally, images were analyzed using script based algorithms. The main readout HEK-ATF4 monitored the ATF4 signal ratio between nucleus and cytoplasm. Tunicamycin induced an increase in the overall ATF4 ratio signal, which was prevented by ISR modulating example compounds. In addition, HEK-CellCount readout was derived from counting the number of stained nuclei corresponding to healthy cells. This readout served as an internal toxicity control.
What is called IC50 is the midpoint of a concentration-inhibition curve. For `Cc1ncc(OCC(=O)N[C@@H]2CC[C@@H](c3nnc(-c4ccc(Cl)cc4)o3)OC2)cc1Cl` [Example 15, 2-[(5-chloro-6-methylpyridin-3-yl)oxy]-N-[(3R,6S)-6-[5-(4-chlorophenyl)-1,3,4-oxadiazol-2-yl]oxan-3-yl]acetamide], the IC50 lay within 1 to 500 nM. The result for `O=C(COc1ccc(Cl)c(F)c1)N[C@@H]1CC[C@@H](c2nnc(-c3ccnc(C(F)(F)F)c3)o2)OC1` [Example 17, 2-(4-chloro-3-fluorophenoxy)-N-[(3R,6S)-6-{5-[2-(trifluoromethyl)pyridin-4-yl]-1,3,4-oxadiazol-2-yl}oxan-3-yl]acetamide] reads 1 to 500 nM; that for `Cc1ncc(OCC(=O)N[C@@H]2CC[C@@H](c3nnc(-c4ccc(Cl)cc4)o3)OC2)cc1F` [Example 10, N-[(3R,6S)-6-[5-(4-chlorophenyl)-1,3,4-oxadiazol-2-yl]oxan-3-yl]-2-[(5-fluoro-6-methylpyridin-3-yl)oxy]acetamide], 500 to 2000 nM.

For `O=C(COc1cnc(Cl)c(F)c1)N[C@@H]1CC[C@@H](c2nnc(-c3ccc(Cl)cc3)o2)OC1` [Example 7, 2-[(6-chloro-5-fluoropyridin-3-yl)oxy]-N-[(3R,6S)-6-[5-(4-chlorophenyl)-1,3,4-oxadiazol-2-yl]oxan-3-yl]acetamide], the IC50 fell in the range of 1 to 500 nM.

In the case of `O=C(COc1cncc(C(F)(F)F)c1)N[C@@H]1CC[C@@H](c2nnc(-c3ccc(Cl)cc3)o2)OC1` [Example 19, N-[(3R,6S)-6-[5-(4-chlorophenyl)-1,3,4-oxadiazol-2-yl]oxan-3-yl]-2-{[5-(trifluoromethyl)pyridin-3-yl]oxy}acetamide], the IC50 lay within 500 to 2000 nM. For `O=C(COc1ccc(Cl)c(F)c1)N[C@@H]1CC[C@@H](c2nnc(-c3ccc(Cl)cc3)o2)OC1` [Example 1, 2-(4-chloro-3-fluoro-phenoxy)-N-[(3R,6S)-6-[5-(4-chlorophenyl)-1,3,4-oxadiazol-2-yl]tetrahydropyran-3-yl]acetamide], the IC50 lay within 1 to 500 nM. Turning to `O=C(COc1cnc(Cl)c(F)c1)N[C@@H]1CC[C@@H](c2nnc(-c3ccc(Cl)nc3)o2)OC1` [Example 11, 2-[(6-chloro-5-fluoropyridin-3-yl)oxy]-N-[(3R,6S)-6-[5-(6-chloropyridin-3-yl)-1,3,4-oxadiazol-2-yl]oxan-3-yl]acetamide], the IC50 lay within 2000 to 15000 nM. With `O=C(COc1ccc(Cl)c(F)c1)N[C@@H]1CC[C@@H](c2nnc(-c3ccc(C(F)(F)F)nc3)o2)OC1` [Example 3, 2-(4-chloro-3-fluorophenoxy)-N-[(3R,6S)-6-{5-[6-(trifluoromethyl)pyridin-3-yl]-1,3,4-oxadiazol-2-yl}oxan-3-yl]acetamide], the IC50 was in the range of 1 to 500 nM. As to `O=C(COc1ccnc(C(F)(F)F)c1)N[C@@H]1CC[C@@H](c2nnc(-c3ccc(Cl)cc3)o2)OC1` [Example 8, N-[(3R,6S)-6-[5-(4-chlorophenyl)-1,3,4-oxadiazol-2-yl]oxan-3-yl]-2-{[2-(trifluoromethyl)pyridin-4-yl]oxy}acetamide], the IC50 was 500 to 2000 nM. Regarding `O=C(COc1ccc(Cl)nc1)N[C@@H]1CC[C@@H](c2nnc(-c3ccc(Cl)cc3)o2)OC1` [Example 9, N-[(3R,6S)-6-[5-(4-chlorophenyl)-1,3,4-oxadiazol-2-yl]oxan-3-yl]-2-[(6-chloropyridin-3-yl)oxy]acetamide], the IC50 fell in the range of 1 to 500 nM. To `O=C(COc1ccc(Cl)c(F)c1)N[C@@H]1CC[C@@H](c2nnc(-c3ccc(C4CC4)nc3)o2)OC1` [Example 5, 2-(4-chloro-3-fluorophenoxy)-N-[(3R,6S)-6-[5-(6-cyclopropylpyridin-3-yl)-1,3,4-oxadiazol-2-yl]oxan-3-yl]acetamide] belongs 1 to 500 nM; to `Cc1ccc(OCC(=O)N[C@@H]2CC[C@@H](c3nnc(-c4ccc(Cl)cc4)o3)OC2)cn1` [Example 12, N-[(3R,6S)-6-[5-(4-chlorophenyl)-1,3,4-oxadiazol-2-yl]oxan-3-yl]-2-[(6-methylpyridin-3-yl)oxy]acetamide], 2000 to 15000 nM.

For `CCc1ccc(-c2nnc([C@@H]3CC[C@@H](NC(=O)COc4ccc(Cl)c(F)c4)CO3)o2)cn1` [Example 6, 2-(4-chloro-3-fluorophenoxy)-N-[(3R,6S)-6-[5-(6-ethylpyridin-3-yl)-1,3,4-oxadiazol-2-yl]oxan-3-yl]acetamide], the IC50 was 500 to 2000 nM. To `O=C(COc1ccc(C(F)(F)F)nc1)N[C@@H]1CC[C@@H](c2nnc(-c3ccc(Cl)cc3)o2)OC1` [Example 18] belongs 1 to 500 nM. On to `O=C(COc1ccc(Cl)c(F)c1)N[C@H]1CC[C@H](c2nnc(-c3ccc(Cl)cc3)o2)OC1` [Example 4, 2-(4-chloro-3-fluorophenoxy)-N-[(3S,6R)-6-[5-(4-chlorophenyl)-1,3,4-oxadiazol-2-yl]oxan-3-yl]acetamide], for which the IC50 was 1 to 500 nM. As to `O=C(COc1cnc(Cl)cn1)N[C@@H]1CC[C@@H](c2nnc(-c3ccc(Cl)cc3)o2)OC1` [Example 13, N-[(3R,6S)-6-[5-(4-chlorophenyl)-1,3,4-oxadiazol-2-yl]oxan-3-yl]-2-[(5-chloropyrazin-2-yl)oxy]acetamide], the IC50 fell in the range of 500 to 2000 nM.

For the compound `O=C(COc1ccc(Cl)cc1)N[C@@H]1CC[C@@H](c2nnc(-c3ccc(Cl)cc3)o2)OC1` [Example 2, 2-(4-chlorophenoxy)-N-[(3R,6S)-6-[5-(4-chlorophenyl)-1,3,4-oxadiazol-2-yl]oxan-3-yl]acetamide], the IC50 lay within 1 to 500 nM. For the compound `O=C(COc1ccc(Cl)c(F)c1)N[C@@H]1CC[C@@H](c2nnc(-c3cncc(C(F)(F)F)c3)o2)OC1` [Example 16, 2-(4-chloro-3-fluorophenoxy)-N-[(3R,6S)-6-{5-[5-(trifluoromethyl)pyridin-3-yl]-1,3,4-oxadiazol-2-yl}oxan-3-yl]acetamide], the IC50 fell in the range of 500 to 2000 nM. `O=C(COc1cnc(Cl)nc1)N[C@@H]1CC[C@@H](c2nnc(-c3ccc(Cl)cc3)o2)OC1` [Example 14, N-[(3R,6S)-6-[5-(4-chlorophenyl)-1,3,4-oxadiazol-2-yl]oxan-3-yl]-2-[(2-chloropyrimidin-5-yl)oxy]acetamide]: the IC50 lay in the range of 500 to 2000 nM.
